Among the data in US9206128B2 (Constellation Pharmaceuticals, Inc., priority 2011, dated 2015) are IC50 values, retold here.

One assay has as its target EZH2 (Homo sapiens, UniProt Q15910). The assay can be described thus: EZH2 activity inhibition assay (rPRC2, 3H SAM, biotinylated oligonucleosomes, FlashPlate). The assay is classed as biochemical. The settings on record: rPRC2, 2 nM EZH2, 0.2 μM 3H SAM, top concentration 80 μM. The method, then:
(§1) EZH2 Assay: Assays were carried out by mixing rPRC2 together with biotinylated oligonucleosome substrates in the presence of the radio-labeled enzyme co-factor, S-adenosyl-L-methionine (^3H SAM) (Perkin Elmer) and monitoring the enzymatically mediated transfer of tritiated methyl groups from ^3H SAM to histone lysine residues. The amount of resulting tritiated methyl histone product was measured by first capturing the biotinylated oligonucleosomes in streptavidin (SAV) coated FlashPlates (Perkin Elmer), followed by a wash step to remove un-reacted ^3H SAM, and then counting on a TopCount NXT 384 well plate scintillation counter (Perkin Elmer).
A 12.5 μL volume of the HMT enzyme, H3K27me3 peptide and oligonucleosome substrate in assay buffer was added to each well of the assay plate using a Multidrop Combi (ThermoFisher). Compounds were pre-incubated with the enzyme for 20 min, followed by initiation of the methyltransferase reaction by addition of 12.5 μL of 3H SAM in assay buffer (final volume=25 μL). […] Stopped reactions were transferred to SAV coated Flashplates (Perkin Elmer), incubated for 120 min, washed with a plate washer, and then read on the TopCount NXT (1.0 min/well) to measure the amount of methyl histone product formed during the reaction.

The next assay concerns the target Y641N EZH2 (Homo sapiens, UniProt Q15910, Y641N). The assay can be described thus: Y641N EZH2 activity inhibition assay (as EZH2 assay, reconstituted H3K27Me2 oligonucleosomes as substrate). The assay is classed as biochemical. To be noted: Y641N EZH2 mutant enzyme. The method, then: as §1, with “Elmer). The final assay conditions for EZH2 were as follows: 50 mM Tris Buffer pH 8.5, 1 mM DTT, 69 μM Brij-35 detergent, 5.0 mM MgCl2, 0.1 mg/mL BSA, 0.2 μM ^3H SAM, 0.2 μM biotinylated oligonucleosomes, 3.6 μM H3K27me3 peptide and 2 nM EZH2.” for “Elmer).”
A 12.5 μL volume of the HMT enzyme, H3K27me3 peptide and oligonucleosome substrate in assay buffer was added to each well of the assay plate using a Multidrop Combi (ThermoFisher). Compounds were pre-incubated with the enzyme for 20 min, followed by initiation of the methyltransferase reaction by addition of 12.5 μL of 3H SAM in assay buffer (final volume=25 μL). The final concentrations of compounds ranged from a top default concentration of 80 μM down to 0.16 μM in ten 2-fold dilution steps. Reactions were carried out for 60 minutes and quenched with 20 μL per well of 1.96 mM SAH, 50 mM Tris PH 8.5, 200 mM EDTA. Stopped reactions were transferred to SAV coated Flashplates (Perkin Elmer), incubated for 120 min, washed with a plate washer, and then read on the TopCount NXT (1.0 min/well) to measure the amount of methyl histone product formed during the reaction.

Sequence of EZH2 (Q15910 whole entry): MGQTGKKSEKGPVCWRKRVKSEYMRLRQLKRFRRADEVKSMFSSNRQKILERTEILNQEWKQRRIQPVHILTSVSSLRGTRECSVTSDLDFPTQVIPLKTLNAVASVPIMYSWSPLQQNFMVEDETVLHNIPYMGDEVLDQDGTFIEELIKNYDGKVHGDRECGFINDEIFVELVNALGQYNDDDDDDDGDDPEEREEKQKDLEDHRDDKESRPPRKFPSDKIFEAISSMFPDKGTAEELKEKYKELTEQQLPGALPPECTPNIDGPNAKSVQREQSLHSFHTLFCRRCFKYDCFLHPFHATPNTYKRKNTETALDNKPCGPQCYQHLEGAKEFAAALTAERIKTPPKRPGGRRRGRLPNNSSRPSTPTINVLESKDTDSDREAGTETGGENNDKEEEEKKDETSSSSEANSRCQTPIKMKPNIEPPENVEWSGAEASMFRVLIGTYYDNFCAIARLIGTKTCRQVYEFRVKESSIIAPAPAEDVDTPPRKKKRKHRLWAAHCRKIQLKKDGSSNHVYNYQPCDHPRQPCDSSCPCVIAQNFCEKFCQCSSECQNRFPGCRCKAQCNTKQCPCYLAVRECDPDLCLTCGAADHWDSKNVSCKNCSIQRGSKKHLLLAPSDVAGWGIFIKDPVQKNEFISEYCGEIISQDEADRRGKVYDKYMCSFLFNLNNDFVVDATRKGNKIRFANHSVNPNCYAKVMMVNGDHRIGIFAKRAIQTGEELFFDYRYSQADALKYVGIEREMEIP
Sequence of EZH2 (O75530 whole entry partner): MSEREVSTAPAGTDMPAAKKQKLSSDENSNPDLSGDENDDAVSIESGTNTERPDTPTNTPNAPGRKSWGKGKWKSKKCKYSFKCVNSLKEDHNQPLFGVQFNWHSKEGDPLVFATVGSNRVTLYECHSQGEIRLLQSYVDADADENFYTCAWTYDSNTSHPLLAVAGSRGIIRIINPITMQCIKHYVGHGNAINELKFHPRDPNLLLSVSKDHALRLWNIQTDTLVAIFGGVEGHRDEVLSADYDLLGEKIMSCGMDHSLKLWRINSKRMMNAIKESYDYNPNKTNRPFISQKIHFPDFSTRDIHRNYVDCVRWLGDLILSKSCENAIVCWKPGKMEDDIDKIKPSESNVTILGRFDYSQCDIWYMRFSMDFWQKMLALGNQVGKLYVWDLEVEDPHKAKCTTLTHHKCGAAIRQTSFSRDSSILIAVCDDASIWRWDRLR
Sequence of EZH2 (Q15022 whole entry partner): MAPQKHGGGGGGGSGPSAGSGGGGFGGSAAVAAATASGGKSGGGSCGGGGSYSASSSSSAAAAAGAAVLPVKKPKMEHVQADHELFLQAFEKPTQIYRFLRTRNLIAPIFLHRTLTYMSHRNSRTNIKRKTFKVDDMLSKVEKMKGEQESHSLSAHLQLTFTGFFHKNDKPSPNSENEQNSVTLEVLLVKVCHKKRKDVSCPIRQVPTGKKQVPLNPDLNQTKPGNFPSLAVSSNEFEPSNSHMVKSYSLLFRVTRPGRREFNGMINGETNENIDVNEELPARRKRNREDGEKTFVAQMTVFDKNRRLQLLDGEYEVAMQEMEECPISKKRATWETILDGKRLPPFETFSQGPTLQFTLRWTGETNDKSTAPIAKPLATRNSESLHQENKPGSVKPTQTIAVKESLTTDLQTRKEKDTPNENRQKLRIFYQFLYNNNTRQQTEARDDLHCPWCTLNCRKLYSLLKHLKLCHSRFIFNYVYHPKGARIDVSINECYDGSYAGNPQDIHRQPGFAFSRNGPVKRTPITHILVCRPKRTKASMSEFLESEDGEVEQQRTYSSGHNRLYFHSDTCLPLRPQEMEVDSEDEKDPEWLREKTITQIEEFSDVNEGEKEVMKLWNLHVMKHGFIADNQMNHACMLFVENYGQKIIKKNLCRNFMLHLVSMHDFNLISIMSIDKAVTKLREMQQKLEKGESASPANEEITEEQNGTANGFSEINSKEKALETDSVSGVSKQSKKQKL
Sequence of Y641N EZH2 (Q15910 whole entry Y641N): as the sequence (Q15910 whole entry) above, with Y641N counted along it
Sequence of Y641N EZH2 (O75530 whole entry partner): as the sequence (O75530 whole entry partner) above
Sequence of Y641N EZH2 (Q15022 whole entry partner): as the sequence (Q15022 whole entry partner) above

On to `Cc1cc(C)c(CNC(=O)c2ccc(C(C)Oc3ccccn3)cc2)c(=O)[nH]1` (centres unmarked) [Compound I-60, N-((2-hydroxy-4,6-dimethylpyridin-3-yl)methyl)-4-(1-(pyridin-2-yloxy)ethyl)benzamide], for which the values for the IC50 on EZH2 and on Y641N EZH2 were below 1 µM and 1 to 10 µM, respectively.

Turning to `Cc1cc(C)c(CNC(=O)c2ccc(C(C)Oc3ccccc3)c(F)c2)c(=O)[nH]1` (centres unmarked) [Compound I-63, 3-fluoro-N-((2-hydroxy-4,6-dimethylpyridin-3-yl)methyl)-4-(1-phenoxyethyl)benzamide], the IC50 on EZH2 and against Y641N EZH2 was below 1 µM in each case.

Regarding `Cc1cc(C)c(CNC(=O)c2ccc(C(C)Oc3ccccc3)nc2)c(=O)[nH]1` (centres unmarked) [Compound I-64, N-((2-hydroxy-4,6-dimethylpyridin-3-yl)methyl)-6-(1-phenoxyethyl)nicotinamide], the IC50 was 1 to 10 µM on EZH2 and above 80 µM against Y641N EZH2.

Consider `Cc1cc(C(F)(F)F)c(CNC(=O)c2ccc(Oc3ccccc3)cc2)c(=O)[nH]1` [Compound I-65, N-((2-hydroxy-6-methyl-4-(trifluoromethyl)pyridin-3-yl)methyl)-4-phenoxybenzamide], for which the IC50 on EZH2 was 10 to 50 µM; on Y641N EZH2, above 80 µM.

Consider `Cc1cc(C)c(CNC(=O)c2ccc(C(C)Oc3ccccc3)cc2Cl)c(=O)[nH]1` (centres unmarked) [Compound I-66, 2-chloro-N-((2-hydroxy-4,6-dimethylpyridin-3-yl)methyl)-4-(1-phenoxyethyl)benzamide], for which the IC50 against EZH2 and against Y641N EZH2 was below 1 µM each time.

With `Cc1cc(C)c(CNC(=O)c2ccc([C@H](C)Oc3cccc(-c4ccc(N)nc4)c3)cc2)c(=O)[nH]1` [Compound I-69], the IC50 on EZH2 and against Y641N EZH2 was below 1 µM throughout.

For `Cc1cc(C)c(CNC(=O)c2ccc(C(C)Oc3ncccn3)cc2)c(=O)[nH]1` (centres unmarked) [Compound I-76, N-((2-hydroxy-4,6-dimethylpyridin-3-yl)methyl)-4-(1-(pyrimidin-2-yloxy)ethyl)benzamide], the IC50 was 10 to 50 µM against EZH2 and above 80 µM against Y641N EZH2.

On to `Cc1cc(C)c(CNC(=O)c2ccc(C(C)Oc3cccnc3)nc2)c(=O)[nH]1` (centres unmarked) [Compound I-78, N-((2-hydroxy-4,6-dimethylpyridin-3-yl)methyl)-6-(1-(pyridin-3-yloxy)ethyl)nicotinamide], for which the IC50 on EZH2 is 1 to 10 µM; at Y641N EZH2 it was above 80 µM.

For the molecule `Cc1cc(C)c(CNC(=O)c2cnc(Oc3ccccc3)nc2)c(=O)[nH]1` [Compound I-79, N-((2-hydroxy-4,6-dimethylpyridin-3-yl)methyl)-2-phenoxypyrimidine-5-carboxamide], the IC50 is 10 to 50 µM against EZH2 and above 80 µM on Y641N EZH2.

Turning to `Cc1cc(C)c(CNC(=O)c2ccc(CN3CCCCC3)cc2C)c(=O)[nH]1` [Compound I-80, N-((2-hydroxy-4,6-dimethylpyridin-3-yl)methyl)-2-methyl-4-(piperidin-1-ylmethyl)benzamide], the 50% inhibitory concentration (IC50) was in the range of 1 to 10 µM at EZH2 and 10 to 50 µM on Y641N EZH2.

With `Cc1cc(C)c(CNC(=O)c2ccc(C(C)N3CCCCC3)cc2)c(=O)[nH]1` (centres unmarked) [Compound I-81], the IC50 on EZH2 fell in the range of 1 to 10 µM; against Y641N EZH2, 10 to 50 µM.

As to `Cc1cc(C)c(CNC(=O)c2ccc(C3CCOC3)cc2)c(=O)[nH]1` (centres unmarked) [Compound I-83, N-((2-hydroxy-4,6-dimethylpyridin-3-yl)methyl)-4-(tetrahydrofuran-3-yl)benzamide], the IC50 against EZH2 is below 1 µM; against Y641N EZH2, 1 to 10 µM.

As to `Cc1cc(C)c(CNC(=O)c2ccc(C3CCCO3)cc2)c(=O)[nH]1` (centres unmarked) [Compound I-84, N-((2-hydroxy-4,6-dimethylpyridin-3-yl)methyl)-4-(tetrahydrofuran-2-yl)benzamide], the IC50 on EZH2 is 1 to 10 µM; on Y641N EZH2, 10 to 50 µM.

On to `Cc1cc(C)c(CNC(=O)c2ccc(C(C)OC3CCCCC3)cc2)c(=O)[nH]1` (centres unmarked) [Compound I-85, 4-(1-(cyclohexyloxy)ethyl)-N-((2-hydroxy-4,6-dimethylpyridin-3-yl)methyl)benzamide], for which the values for the IC50 on EZH2 and on Y641N EZH2 were below 1 µM and 1 to 10 µM, respectively.

Take `Cc1cc(C)c(CNC(=O)c2ccc(C3CCCC3)cc2)c(=O)[nH]1` [Compound I-86, 4-cyclopentyl-N-((2-hydroxy-4,6-dimethylpyridin-3-yl)methyl)benzamide]: the IC50 is below 1 µM on EZH2 and 1 to 10 µM against Y641N EZH2.

Regarding `Cc1cc(C)c(CNC(=O)c2ccc(C(C)N3CCCCC3)cc2C)c(=O)[nH]1` (centres unmarked) [Compound I-87, N-((2-hydroxy-4,6-dimethylpyridin-3-yl)methyl)-2-methyl-4-(1-(piperidin-1-yl)ethyl)benzamide], the IC50 at EZH2 and at Y641N EZH2 was 1 to 10 µM throughout.

On to `Cc1cc(C)c(CNC(=O)c2ccc(C(C)N3CCCCC3=O)cc2)c(=O)[nH]1` (centres unmarked) [Compound I-88, N-((2-hydroxy-4,6-dimethylpyridin-3-yl)methyl)-4-(1-(2-oxopiperidin-1-yl)ethyl)benzamide], for which the IC50 at EZH2 was 1 to 10 µM; on Y641N EZH2, above 80 µM.

With `Cc1cc(C)c(CNC(=O)c2ccc(CN3CCN(CCO)CC3)cc2)c(=O)[nH]1` [Compound I-89, N-((4,6-dimethyl-2-oxo-1,2-dihydropyridin-3-yl)methyl)-4-((4-(2-hydroxyethyl)piperazin-1-yl)methyl)benzamide], the IC50 was 1 to 10 µM on EZH2 and above 80 µM on Y641N EZH2.

Regarding `Cc1cc(C)c(CNC(=O)c2ccc(C(C)COc3ccccc3)cc2)c(O)n1` (centres unmarked) [Compound I-116, N-((2-hydroxy-4,6-dimethylpyridin-3-yl)methyl)-4-(1-phenoxypropan-2-yl)benzamide], the IC50 is below 1 µM on EZH2 and above 80 µM against Y641N EZH2.

Turning to `Cc1cc(C)c(CNC(=O)c2ccc(C(C)Oc3ccncn3)cc2)c(=O)[nH]1` (centres unmarked) [Compound I-155, N-((2-hydroxy-4,6-dimethylpyridin-3-yl)methyl)-4-(1-(pyrimidin-4-yloxy)ethyl)benzamide], the figures for the IC50 against EZH2 and against Y641N EZH2 were below 1 µM and 1 to 10 µM, respectively.

Turning to `Cc1c[nH]c(=O)c(CNC(=O)c2ccc(C(C)Oc3ccccc3)cc2)c1` (centres unmarked) [Compound I-156], the IC50 against EZH2 and at Y641N EZH2 was above 80 µM in each case.

In the case of `Cc1cc(CNC(=O)c2ccc(C(C)Oc3ccccc3)cc2)c(=O)[nH]c1C` (centres unmarked) [Compound I-157], the IC50 against EZH2 and on Y641N EZH2 was above 80 µM in each case.

Take `Cc1cc(C)c(CNC(=O)c2ccc(Oc3ccccc3)nn2)c(=O)[nH]1` [Compound I-158]: the IC50 at EZH2 and at Y641N EZH2 was above 80 µM throughout.

As to `Cc1cc(C)c(CNC(=O)c2ncc(Oc3ccccc3)cn2)c(=O)[nH]1` [Compound I-159], the IC50 against EZH2 and against Y641N EZH2 was above 80 µM each time.

For `Cc1cc(C)c(CNC(=O)c2ccc([C@@H](C)Oc3ccccc3C#N)cc2)c(=O)[nH]1` [Compound I-162], the IC50 on EZH2 was 1 to 10 µM; at Y641N EZH2, above 80 µM.

As to `Cc1cc(C)c(CNC(=O)c2ccc([C@H](C)Oc3ccccc3C#N)cc2)c(=O)[nH]1` [Compound I-163], the IC50 on EZH2 and at Y641N EZH2 was below 1 µM throughout.

Turning to `Cc1cc(C)c(CNC(=O)c2ccc([C@@H](C)Oc3cccc(C#N)c3)cc2)c(=O)[nH]1` [Compound I-168], the IC50 was 1 to 10 µM at EZH2 and above 80 µM on Y641N EZH2.

As for `Cc1cc(C)c(CNC(=O)c2ccc([C@H](C)Oc3cccc(C#N)c3)cc2)c(=O)[nH]1` [Compound I-169], the half-maximal inhibitory concentration (IC50) against EZH2 and on Y641N EZH2 was below 1 µM in each case.

For `O=C(NCc1ccc(-c2ccccc2)[nH]c1=O)c1ccc(Oc2ccccc2)cc1` [Compound I-170], the IC50 against EZH2 and against Y641N EZH2 was above 80 µM each time.

As for `O=C(NCc1cc2c([nH]c1=O)CCC2)c1ccc(Oc2ccccc2)cc1` [Compound I-178, N-((2-oxo-2,5,6,7-tetrahydro-1H-cyclopenta[b]pyridin-3-yl)methyl)-4-phenoxybenzamide], the IC50 at EZH2 and against Y641N EZH2 was 10 to 50 µM each time.

Take `O=C(NCc1cc2c([nH]c1=O)CCCC2)c1ccc(Oc2ccccc2)cc1` [Compound I-179]: the results for the half-inhibitory concentration (IC50) at EZH2 and at Y641N EZH2 were above 50 µM and above 80 µM, respectively.

What is called IC50 is the concentration needed to halve the response being measured.
